Results taken from article PMC11515387, “VvD14c-VvMAX2-VvLOB/VvLBD19 module is involved in the strigolactone-mediated regulation of grapevine root architecture” (Molecular Horticulture, 2024).
pKd: −log10 of the molar value.

Target: T1, VvD14c (Vitis vinifera, UniProt A0ACM8QNI4)
T1 construct: gene VIT_18s0001g09140; pET-28b, His-tag, E. coli Rosetta (DE3); VvD14c encodes 267 amino acids
Assay: surface plasmon resonance (Biacore 8K, CM5 chip, LMW multi-cycle kinetics/affinity)
Assay type: binding

T1 sequence (A0ACM8QNI4 entry or part of it): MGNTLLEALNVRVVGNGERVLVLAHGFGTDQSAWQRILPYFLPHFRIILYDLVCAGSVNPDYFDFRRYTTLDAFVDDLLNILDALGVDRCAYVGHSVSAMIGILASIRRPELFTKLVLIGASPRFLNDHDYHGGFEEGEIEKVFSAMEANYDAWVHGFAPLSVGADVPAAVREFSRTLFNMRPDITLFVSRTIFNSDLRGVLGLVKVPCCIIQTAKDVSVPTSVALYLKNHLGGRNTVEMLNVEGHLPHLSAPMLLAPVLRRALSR

Work on CC1=C[C@@H](O/C=C2/C(=O)O[C@@H]3c4ccccc4C[C@H]23)OC1=O [GR24] yielded a pKd of 8.25.
